Laboratory results as given in patent US4426524A, “Heterocyclic substituted benzyl alcohol, insecticidal ester derivatives, and intermediates” (priority 1982, dated 1984).

Key:
[1] = system: southern armyworm; test: Topical application, southern armyworm; format: in vivo, Spodoptera eridania; details: SAW; for Topical % Kill @ 5000 ng/insect: 24 hours
Protocol: (§1) Topical Application: The compounds of this invention were tested for insecticidal activity against various insect species selected from southern armyworm (Spodoptera eridania), Mexican bean beetle, (Epilachna varivestis), milkweed bug (Oncopeltus fasciatus), and cabbage looper (Tricoplusia ni) by applying to the second or third dorsal thoracic segment of each larvae a one microliter droplet containing 5 mg/mL of test compound in acetone (5000 ng/insect). The test was allowed to stand 24 hours after application and was then read to determine the percent kill.
(§2) To determine the LD50 of the compounds, the topical application test was repeated by applying various amounts of toxicant. Also included among the species tested against for this determination were tobacco budworm (Heliothis virescens), beet armyworm (Spodoptera exigua), and boll weevil (Anthonomus grandis).

[2] = system: cabbage looper; test: Topical application, cabbage looper; format: in vivo, Tricoplusia ni; details: CL
Protocol: as §1, §2

[3] = system: milkweed bug; test: Topical application, milkweed bug; format: in vivo, Oncopeltus fasciatus; details: MWB; for Topical % Kill @ 5000 ng/insect: 24 hours
Protocol: as §1, §2

[4] = system: Mexican bean beetle; test: Topical application, Mexican bean beetle; format: in vivo, Epilachna varivestis; details: MBB; for Topical % Kill @ 5000 ng/insect: 24 hours
Protocol: as §1, §2

[5] = system: beet armyworm; test: Topical application, beet armyworm; format: in vivo, Spodoptera exigua; details: BAW
Protocol: as §1, §2

[6] = system: pea aphid; test: Foliar application, pea aphid; format: in vivo; details: Acyrthosiphon pisum, PA, foliar, 48 hours, read-out: Foliar % Kill (ppm)
Protocol: (§3) Foliar Application: The activity of some of the compounds of the invention against various test species selected from pea aphid (Acyrthosiphon pisum), twospotted spider mite (Tetranychus urticae), southern armyworm (Spodoptera eridania), Mexican bean beetle (Epilachna varivestis), and cabbage looper (Tricoplusia ni) was determined by foliar application of the test compound. The test materials were formulated as aqueous solutions containing 10% acetone and 0.25% acetylphenoxypolyethoxyethanol. Activity against pea aphid was determined on English fava bean plants the leaves of which were sprayed to runoff with various concentrations of test solution prior to infestation with adult aphids. Activity against twospotted spider mite was evaluated on pinto bean plants whose leaves were sprayed to runoff with various concentrations of test solution after infestation with adult mites. Activity against the remaining species was evaluated on pinto bean plants whose leaves were sprayed to runoff with various concentrations of test solution before infestation with the appropriate immature insects. Mortality was read approximately 48 hours after treatment.

[7] = system: twospotted spider mite; test: Foliar application, twospotted spider mite; format: in vivo; details: Tetranychus urticae, TSM, foliar, 48 hours, read-out: Foliar % Kill (ppm)
Protocol: as §3

[8] = system: tobacco budworm; test: Topical application, tobacco budworm; format: in vivo, Heliothis virescens; details: TBW
Protocol: as §1, §2

[9] = system: boll weevil; test: Topical application, boll weevil; format: in vivo, Anthonomus grandis; details: BW
Protocol: as §1, §2

[10] = system: southern armyworm; test: Foliar application, southern armyworm; format: in vivo; details: Spodoptera eridania, SAW, foliar, 48 hours, read-out: Foliar % Kill (ppm)
Protocol: as §3

[11] = system: cabbage looper; test: Foliar application, cabbage looper; format: in vivo, Tricoplusia ni; details: Trichoplusia ni, CL, 48 hours, read-out: Foliar % Kill (ppm)
Protocol: as §3

[12] = system: Mexican bean beetle; test: Foliar application, Mexican bean beetle; format: in vivo; details: Epilachna varivestis, MBB, foliar, 48 hours, read-out: Foliar % Kill (ppm)
Protocol: as §3

[13] = system: milkweed bug; test: Foliar application, milkweed bug; format: in vivo; details: Oncopeltus fasciatus, MWB, 48 hours, read-out: Foliar % Kill (ppm)

Compound | Topical LD50 [1] | Topical % Kill @ 5000 ng/insect [1] | Topical LD50 [2] | Topical LD50 [3] | Topical % Kill @ 5000 ng/insect [3] | Topical LD50 [4] | Topical % Kill @ 5000 ng/insect [4] | mortality at 500 ppm [6] | mortality at 500 ppm [7] | Topical LD50 [8] | mortality at 512 ppm [10] | mortality at 512 ppm [6] | also measured
CC1(C)[C@H](C=C(Cl)Cl)[C@@H]1C(=O)OCc1cccc(-c2ccsc2)c1 (relative stereo) [d, 3-(3-thienyl)phenylmethyl cis-3-(2,2-dichloroethenyl)-2,2-dimethylcyclopropanecarboxylate] | 57 ng/insect | 100% | 2408 ng/insect | 1137 ng/insect | 95% | 73 ng/insect | 100% | 100% | 100% | – | – | – | Topical LD50 [5]: 3010 ng/insect
Cc1c(COC(=O)[C@H]2[C@@H](C=C(Cl)Cl)C2(C)C)cccc1-c1cccs1 (relative stereo) [g, [2-methyl-3-(2-thienyl)phenyl]methyl cis-3-(2,2-dichloroethenyl)-2,2-dimethylcyclopropanecarboxylate] | 51 ng/insect | 100% | 0.5 ng/insect | 234 ng/insect | 100% | 8 ng/insect | – | – | – | 107 ng/insect | 100% | 100% | Topical LD50 [9]: 21 ng/insect; mortality at 80 ppm ([11]; 80 ppm): 100%; mortality at 512 ppm [12]: 100%; mortality at 64 ppm ([7]; 64 ppm): 0%
Cc1c(COC(=O)[C@H]2[C@@H](C=C(Cl)C(F)(F)F)C2(C)C)cccc1-c1cccs1 (relative stereo) [e, [2-methyl-3-(2-thienyl)phenyl]-methyl cis-3-(2-chloro-3,3,3-trifluoro-1-propenyl)-2,2-dimethylcyclopropanecarboxylate] | 23 ng/insect | 100% | 74 ng/insect | 72 ng/insect | 100% | 7 ng/insect | 100% | – | – | 43 ng/insect | 100% | 100% | Topical LD50 [9]: 11 ng/insect; mortality at 24 ppm ([11]; 24 ppm): 95%; mortality at 512 ppm [13]: 100%; mortality at 512 ppm [7]: 100%
Cc1c(COC(=O)[C@@H]2[C@H](C=C(Cl)Cl)C2(C)C)cccc1-c1cccs1 [h, [2-methyl-3-(2-thienyl)phenyl]-methyl 1R-cis-3-(2,2-dichloroethenyl)-2,2-dimethylcyclopropanecarboxylate] | 22 ng/insect | – | 136 ng/insect | 64 ng/insect | 100% | 9 ng/insect | 100% | 100% | 100% | 38 ng/insect | – | – | mortality at 6.5 ppm ([10]; 6.5 ppm): 100%; mortality at 16 ppm ([11]; 16 ppm): 90%; mortality at 16 ppm ([12]; 16 ppm): 95%
Cc1c(COC(=O)[C@H]2[C@H](C=C(Cl)Cl)C2(C)C)cccc1-c1cccs1 (relative stereo) [f, [2-methyl-3-(2-thienyl)phenyl]methyl trans-3-(2,2-dichloroethenyl)-2,2-dimethylcyclopropanecarboxylate] | 155 ng/insect | – | – | 238 ng/insect | 100% | – | – | – | – | – | 100% | 100% | mortality at 120 ppm ([11]; 120 ppm): 100%; mortality at 512 ppm [12]: 100%; mortality at 512 ppm [7]: 71%
Cc1c(COC(=O)[C@H]2[C@@H](C=C(Br)Br)C2(C)C)cccc1-c1cccs1 (relative stereo) [i, [2-methyl-3-(2-thienyl)phenyl]-methyl cis-3-(2,2-dibromoethenyl)-2,2-dimethylcyclopropanecarboxylate] | 55 ng/insect | 100% | 371 ng/insect | 132 ng/insect | 100% | 20 ng/insect | 100% | 100% | 90% | 177 ng/insect | – | – | mortality at 16 ppm ([10]; 16 ppm): 95%; mortality at 32 ppm ([11]; 32 ppm): 70%; mortality at 32 ppm ([12]; 32 ppm): 90%
Cc1c(COC(=O)[C@H]2[C@@H](C=C(Cl)C(F)(F)F)C2(C)C)cccc1-c1ccco1 (relative stereo) [m, [3-(2-furanyl)-2-methylphenyl]methyl cis-3-(2-chloro-3,3,3-trifluoro-1-propenyl)-2,2-dimethylcyclopropanecarboxylate] | 56 ng/insect | 100% | 149 ng/insect | 286 ng/insect | 100% | 43 ng/insect | 100% | 100% | – | 46 ng/insect | – | – | mortality at 500 ppm ([10]; 500 ppm): 100%; mortality at 64 ppm ([12]; 64 ppm): 75%; mortality at 16 ppm ([7]; 16 ppm): 0%
